Measured values: patent US10987363B2, “Fluticasone furoate in the treatment of COPD” (GLAXOSMITHKLINE INTELLECTUAL PROPERTY DEVELOPMENT LIMITED, priority 2014, dated 2021)

Experiments:
COPD patients [1] = assay: Re-analysis of ISOLDE 3-year clinical study: rate of decline of FEV1 by baseline blood eosinophil count; assay type: in vivo, human; settings: 500 mcg twice daily
Source text: Methods: The results of ISOLDE (Burge P S et al BMJ 2000; 320:1297-303), a 3-year study of the effects of fluticasone propionate (FP) 500 mcg twice daily on rate of decline of FEV1 in well-characterised COPD patients were re-analysed by baseline blood eosinophil count (≥2%, <2%).

COPD patients [2] = settings: pre-specified analysis of ISOLDE, all patients; 500 mcg twice daily, 3 years; cited from earlier work

## CCC(=O)O[C@]1(C(=O)SCF)[C@H](C)C[C@H]2[C@@H]3C[C@H](F)C4=CC(=O)C=C[C@]4(C)[C@@]3(F)[C@@H](O)C[C@@]21C [FP, fluticasone propionate]
COPD patients [1]; patients with eosinophil count <2%, 3 years
  difference in rate of decline of FEV1 vs. placebo: no difference
COPD patients [1]; patients with eosinophil count ≥2%, p=0.001
  slowing of the rate of decline of lung function compared with placebo: 38 mL per year
COPD patients [2]
  effect on the rate of decline of FEV1 vs. placebo: no effect
